The results in this text go back to patent US20240400554A1, “MONOACYLGLYCEROL LIPASE (MAGL) INHIBITORS FOR THE TREATMENT OF PAIN AND RELATED MEDICAL DISORDERS” (Humanwell Pharmaceutical US, Inc., priority 2023, published 2024).

SMILES strings stand for the structures.

For test [1], the target named is T1, human recombinant MAGL (monoacylglycerol lipase) (Homo sapiens, UniProt Q99685).
T1 construct: purchased Cayman Chemical Item No. 705192
T1 sequence (Q99685 1-303): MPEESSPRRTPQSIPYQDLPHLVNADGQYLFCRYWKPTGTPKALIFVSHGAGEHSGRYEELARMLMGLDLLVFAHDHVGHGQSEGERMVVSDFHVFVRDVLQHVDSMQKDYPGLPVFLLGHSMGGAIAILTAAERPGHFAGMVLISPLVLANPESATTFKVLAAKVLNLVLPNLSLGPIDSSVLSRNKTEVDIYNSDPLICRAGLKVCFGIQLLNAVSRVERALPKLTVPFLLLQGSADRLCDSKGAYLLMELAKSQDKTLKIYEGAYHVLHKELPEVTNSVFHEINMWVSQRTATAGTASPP
Put plainly: In vitro MAGL enzyme inhibition assay (Cayman Monoacylglycerol Lipase Inhibitor Screening Assay, 4-nitrophenylacetate hydrolysis). The test is classed as biochemical. To be noted: 4-nitrophenylacetate substrate, 15 min preincubation, absorbance 405-415 nm. The procedure:
Monoacylglycerol Lipase Inhibitor Screening Assay provides a convenient method for screening human MAGL inhibitors.
Dilute 3 ml of MAGL Assay Buffer (10×) concentrate with 27 ml of ultrapure water. This final 1× Assay Buffer (10 mM Tris-HCl, pH 7.2, containing 1 mM EDTA) should be used in the assay and for the dilution of MAGL enzyme, substrate, and MAGL inhibitor. The 1× Assay Buffer is stable for at least six months if stored at −20° C.
The vial contains 0.5 ml of 17 mM ethanolic solution of 4-nitrophenylacetate. Mix 150 μL of this solution with 450 μl of 1× Assay Buffer prior to testing. This is enough substrate to assay 50 wells. Dilute additional substrate if using the entire plate.
This vial contains 100 μl of a solution of human recombinant MAGL (monoacylglycerol lipase). The thawed enzyme should be stored on ice. Dilute 30 μl of enzyme with 570 μl of 1×MAGL Assay Buffer. This is enough enzyme to assay 50 wells. Dilute additional enzyme if using the entire plate. The diluted enzyme is stable for four hours on ice.
This vial contains 20 nmol of inhibitor. Resuspend in 125 μl of DMSO, then add 125 μl of 1× Assay Buffer and vortex to make an 80 μM stock.
1). 100% Initial Activity Wells—add 150 μl of 1× Assay Buffer, 10 μl of MAGL enzyme, and 10 μl of solvent (same solvent used to dissolve the inhibitor) to three wells.
2). Background Wells—add 160 μl of 1× Assay Buffer and 10 μl of solvent (same solvent used to dissolve the inhibitor) to three wells.
3). Inhibitor/Positive Control Wells—add 150 μl of 1× Assay Buffer, 10 μl of MAGL enzyme, and 10 μl of inhibitor* or positive control inhibitor to the inhibitor wells.
4). Mix the contents of the wells by pipetting gently up and down and incubate for 15 minutes at room temperature. The incubation time for different inhibitors may vary and will need to be optimized by the user.
5). Initiate the reactions by adding 10 μl of MAGL Substrate to all the wells being used. Carefully shake the 96-well plate for 10 seconds to mix and cover with the plate cover. Incubate for ten minutes at room temperature.
6). […] (Tecan Spark 10M Multimode Plate Reader)
1). Determine the average absorbance of each sample.
2). Subtract the average absorbance of the background wells from the average absorbance of the 100% initial activity and the inhibitor wells.
3). Determine the percent inhibition or percent activity for each inhibitor using one of the following equations: […]

Test [2] concerns 2% formalin model in SD rats. Put plainly: Formalin-induced pain model. The test is classed as in vivo. To be noted: 3 mg/kg p.o.; for inhibition in vivo at 3 mg/kg: Rattus norvegicus, po, 1 h, movements (lifts and licks) 0-60 min after formalin, read-out: MPE % (Maximum Possible Effect). Here is the method:
A diluted formalin solution is injected subcutaneously into the hind paw of rats using a microsyringe, creating a continuous noxious stimulus that induces spontaneous pain behaviors in the animals. The experiment can record the number of lifts and licks of the rat's foot through an autonomous movement analyzer to assess the degree of pain. This experiment uses a 2% formalin model in SD rats and tests the analgesic activity of compounds by oral administration. After injecting 2% formalin, the number of movements (lifts and licks of the injected foot) from 0-60 min after injecting the formalin solution is recorded and analyzed.
The Maximum Possible Effect (MPE %) is calculated as a percentage:
Note: (1) MPE % for each group is calculated with sham group MPE=100% and vehicle group MPE=0% as standards. (2) Movement counts of the sham group are subtracted to exclude the impact of background noise on the experiment. (2) “Sham” represents the average value of the sham group; “Vehicle-Sham” represents the average value of the vehicle group minus the sham group.
Results are presented as mean values with standard error. Data from each group are analyzed and graphed using GraphPad Prism 8 software. Statistical analysis is conducted using one-way ANOVA to determine statistical differences between groups, with t-tests used for comparisons between two groups. A p-value <0.05 is considered statistically significant.

Take `O=C(OC(CO)C(F)(F)F)N1CCC(c2nn3c(c2C(F)(F)F)CCc2cc(F)ccc2-3)CC1` (centres unmarked) [Compound 7, 1,1,1-trifluoro-3-hydroxypropan-2-yl 4-(7-fluoro-3-(trifluoromethyl)-4,5-dihydropyrazolo[1,5-a]quinolin-2-yl)piperidine-1-carboxylate]: in test [1], the half-maximal inhibitory concentration (IC50) was found to be 89.8 nM. In test [2], the “Experimental Results (analgesic activity in the formalin model)” value (from here on “Experimental Results”) is listed as “effective” and the inhibition in vivo at 3 mg/kg was determined as 56%.

As for `Cc1c(C2CCN(C(=O)OC(C(F)(F)F)C(F)(F)F)CC2)nn2c1CCc1cc(F)cnc1-2` [Compound 17, 1,1,1,3,3,3-hexafluoropropan-2-yl 4-(7-fluoro-3-methyl-4,5-dihydropyrazolo[1,5-a][1,8]naphthyridin-2-yl)piperidine-1-carboxylate], in test [1], the 50% inhibitory concentration (IC50) worked out at 126 nM.

For the compound `N#Cc1c(C2CCN(C(=O)OC(C(F)(F)F)C(F)(F)F)CC2)nn2c1CCc1cc(F)cnc1-2` [Compound 18, 1,1,1,3,3,3-hexafluoropropan-2-yl 4-(3-cyano-7-fluoro-4,5-dihydropyrazolo[1,5-a][1,8]naphthyridin-2-yl)piperidine-1-carboxylate], in test [1], the IC50 was found to be 78.3 nM.

Regarding `O=C(OC(C(F)(F)F)C(F)(F)F)N1CCC(c2cc3n(n2)-c2ncc(F)cc2CC3)CC1` [Compound 13, 1,1,1,3,3,3-hexafluoropropan-2-yl 4-(7-fluoro-4,5-dihydropyrazolo[1,5-a][1,8]naphthyridin-2-yl)piperidine-1-carboxylate], the 50% inhibitory concentration (IC50) in test [1] amounted to 9.1 nM. Moreover, in test [2], the “Experimental Results” value is recorded as “effective” and the inhibition in vivo at 3 mg/kg came out at 49%.

Turning to `CC(C)c1c(C2CCN(C(=O)OC(C(F)(F)F)C(F)(F)F)CC2)nn2c1ccc1cc(F)cnc12` [Compound 34, 1,1,1,3,3,3-hexafluoropropan-2-yl 4-(7-fluoro-3-isopropylpyrazolo[1,5-a][1,8]naphthyridin-2-yl)piperidine-1-carboxylate], in test [1], the half-inhibitory concentration (IC50) was 12.5 nM.

Turning to `O=C(OC(C(F)(F)F)C(F)(F)F)N1CCN(c2cc3n(n2)-c2ccc(F)cc2CC3)CC1` [Compound 35, 1,1,1,3,3,3-hexafluoropropan-2-yl 4-(7-fluoro-4,5-dihydropyrazolo[1,5-a]quinolin-2-yl)piperazine-1-carboxylate], the IC50 in test [1] came to 13.1 nM.

As for `O=C(OC(CO)C(F)(F)F)N1CCC(c2nn3c(c2C2CC2)CCc2cc(F)ccc2-3)CC1` (centres unmarked) [Compound 40, 1,1,1-trifluoro-3-hydroxypropan-2-yl 4-(3-cyclopropyl-7-fluoro-4,5-dihydropyrazolo[1,5-a]quinolin-2-yl)piperidine-1-carboxylate], the IC50 in test [1] was 18.8 nM. Also, in test [2], the “Experimental Results” value is listed as “effective” and the inhibition in vivo at 3 mg/kg amounted to 41%.

As for `O=C(OC(CO)C(F)(F)F)N1CCC(c2nc3n(c2Br)-c2ccc(F)cc2CC3)CC1` (centres unmarked) [Compound 28, 1,1,1-trifluoro-3-hydroxypropan-2-yl 4-(1-bromo-7-fluoro-4,5-dihydroimidazo[1,2-a]quinolin-2-yl)piperidine-1-carboxylate], the IC50 in test [1] turned out to be 25.1 nM.

In the case of `Cc1c(C2CCN(C(=O)OC(CO)C(F)(F)F)CC2)nn2c1CCc1cc(F)ccc1-2` (centres unmarked) [Compound 6, 1,1,1-trifluoro-3-hydroxypropan-2-yl 4-(7-fluoro-3-methyl-4,5-dihydropyrazolo[1,5-a]quinolin-2-yl)piperidine-1-carboxylate], the IC50 in test [1] worked out at 16.7 nM. Also, in test [2], the “Experimental Results” value is reported as “effective” and the inhibition in vivo at 3 mg/kg was 44%.

As for `O=C(OC(CO)C(F)(F)F)N1CCC(c2cc3n(n2)-c2ccc(F)cc2CC3)CC1` (centres unmarked) [Compound 2, 1,1,1-trifluoro-3-hydroxypropan-2-yl 4-(7-fluoro-4,5-dihydropyrazolo[1,5-a]quinolin-2-yl)piperidine-1-carboxylate], the IC50 in test [1] was 16 nM. In test [2], the “Experimental Results” value is “effective” and the inhibition in vivo at 3 mg/kg was found to be 45%.

As for `O=C(OC(CO)C(F)(F)F)N1CCC(c2nc3n(c2Br)-c2ncc(F)cc2CC3)CC1` (centres unmarked) [Compound 31, 1,1,1-trifluoro-3-hydroxypropan-2-yl 4-(9-bromo-3-fluoro-5,6-dihydroimidazo[1,2-a][1,8]naphthyridin-8-yl)piperidine-1-carboxylate], in test [1], the IC50 came to 32.7 nM.

For the compound `O=C(OC(CO)C(F)(F)F)N1CCC(c2cn3c(n2)CCc2cc(F)ccc2-3)CC1` (centres unmarked) [Compound 26, 1,1,1-trifluoro-3-hydroxypropan-2-yl 4-(7-fluoro-4,5-dihydroimidazo[1,2-a]quinolin-2-yl)piperidine-1-carboxylate], the IC50 in test [1] was 83.4 nM.

With `O=C(OC(C(F)(F)F)C(F)(F)F)N1CCC(c2cc3n(n2)-c2ccc(F)cc2CC3)CC1` [Compound 1, 1,1,1,3,3,3-hexafluoropropan-2-yl 4-(7-fluoro-4,5-dihydropyrazolo[1,5-a]quinolin-2-yl)piperidine-1-carboxylate], the IC50 in test [1] is below 0.1 nM. In addition, in test [2], the “Experimental Results” value is recorded as “effective” and the inhibition in vivo at 3 mg/kg worked out at 68%.

Regarding `O=C(OC(CO)C(F)(F)F)N1CCC(c2nn3c(c2Br)CCc2cc(F)ccc2-3)CC1` (centres unmarked) [Compound 5, 1,1,1-trifluoro-3-hydroxypropan-2-yl 4-(3-bromo-7-fluoro-4,5-dihydropyrazolo[1,5-a]quinolin-2-yl)piperidine-1-carboxylate], the IC50 in test [1] came out at 37.1 nM. Also, in test [2], the “Experimental Results” value is given as “effective” and the inhibition in vivo at 3 mg/kg turned out to be 44%.

Turning to `CC(C)c1c(C2CCN(C(=O)OC(C(F)(F)F)C(F)(F)F)CC2)nn2c1CCc1cc(F)cnc1-2` [Compound 21, 1,1,1,3,3,3-hexafluoropropan-2-yl 4-(7-fluoro-3-isopropyl-4,5-dihydropyrazolo[1,5-a][1,8]naphthyridin-2-yl)piperidine-1-carboxylate], in test [1], the IC50 came out at 152 nM.

A word on the IC50: it is the concentration that inhibits the measured activity by half.
